Consider 5 molecules from ChEMBL document CHEMBL1909294, “Translating clinical findings into knowledge in drug safety evaluation--drug induced liver injury prediction system (DILIps)” (PLoS Comput Biol, 2011).

Series [1] deals with Hepatotoxicity.
For series [2], the system named is Hepatotoxicity. This is another data set of the same source.
Series [3] relates to Hepatotoxicity. This is another data set of the same source.
The subject of series [4] is Hepatotoxicity. This is another data set of the same source.
Series [5] relates to Hepatotoxicity. The source holds these as a separate data set.
The test system of series [6] is Hepatotoxicity. The source holds these as a separate data set.
Series [7] has as its system Hepatotoxicity. This is another data set of the same source.
In series [8] the test system is Hepatotoxicity. The source holds these as a separate data set.
In series [9] the test system is Hepatotoxicity. The source holds these as a separate data set.
Series [10] has as its system Hepatotoxicity. The source holds these as a separate data set.
Series [11] has as its system Hepatotoxicity. The source holds these as a separate data set.
Series [12] deals with Hepatotoxicity. The source holds these as a separate data set.
For series [13], the system named is Hepatotoxicity. This is another data set of the same source.
Series [14] concerns Hepatotoxicity. This is another data set of the same source.
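Throughout, for HepSE Combined Scores: combined hepatic side effect score as listed in the training data of the Drug Induced Liver Injury Prediction System (DILIps).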
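Throughout, for HepSE bilirubinemia: bilirubinemia hepatic side effect score drawn from the DILIps training data, a prediction system for drug-induced liver injury; call rule not given here.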
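Throughout, for HepSE cholecystitis: Cholecystitis-related hepatic side effect score drawn from the DILIps (drug-induced liver injury prediction) training data set; call rule not given here.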
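Throughout, for HepSE cholelithiasis: hepatic side effect score for cholelithiasis, drawn from the DILIps training data for predicting drug-induced liver injury; call rule not given here.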
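Throughout, for HepSE cirrhosis: cirrhosis hepatic side effect score taken from the DILIps (drug-induced liver injury prediction) training set; call rule not given here.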
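Throughout, for HepSE elevated liver function tests: hepatic side effect score for raised liver function tests, as recorded in the DILIps training set used for predicting drug-induced liver injury.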
Throughout, for HepSE hepatic failure: call rule not given here.
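Throughout, for HepSE hepatic necrosis: score of hepatic side effects for hepatic necrosis, drawn from the training data of DILIps, a prediction system for drug-induced liver injury; call rule not given here.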
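Throughout, for HepSE hepatitis: Hepatitis-related hepatic side effect score taken from the training data of DILIps, a prediction system for drug-induced liver injury; call rule not given here.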
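Throughout, for HepSE hepatomegaly: hepatic side effect score for hepatomegaly, taken from the training set of the DILIps drug-induced liver injury prediction system; call rule not given here.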
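Throughout, for HepSE jaundice: Jaundice-related hepatic side-effect score drawn from the training data of the DILIps (drug-induced liver injury prediction system); call rule not given here.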
Throughout, for HepSE liver disease: call rule not given here.
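Throughout, for HepSE liver fatty: hepatic side effect score for fatty liver, taken from the DILIps training set for predicting drug-induced liver injury; call rule not given here.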
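Throughout, for HepSE liver function tests abnormal: hepatic side effect score taken from the DILIps (drug-induced liver injury prediction system) training data, here covering abnormal liver function test findings.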

`CC(C)(O)c1ccccc1CC[C@@H](SCC1(CC(=O)O)CC1)c1cccc(/C=C/c2ccc3ccc(Cl)cc3n2)c1` [MONTELUKAST] returned a HepSE_bilirubinemia in the series on Hepatotoxicity [1] of 0. Further, the HepSE_cholecystitis in the series on Hepatotoxicity [2] is reported as 0. The molecule further gave a HepSE_cholelithiasis in the series on Hepatotoxicity [3] of 0. In the series on Hepatotoxicity [4], this molecule returned a HepSE_cirrhosis of 0. For the same molecule, the “HepSE_elevated liver function tests” value in the series with Hepatotoxicity [5] is given as 0. Moreover, in the series on Hepatotoxicity [6], the HepSE_hepatic failure amounted to 0. In addition, the HepSE_hepatic necrosis in the series on Hepatotoxicity [7] was 0. For the same molecule, the HepSE_hepatitis in the series on Hepatotoxicity [8] is reported as 1. Also, in the series on Hepatotoxicity [9], the HepSE_hepatomegaly is reported as 0. Also, in the series with Hepatotoxicity [10], the HepSE_jaundice worked out at 0. This molecule showed a HepSE_liver disease in the series on Hepatotoxicity [11] of 1. This molecule also registered a HepSE_liver fatty with Hepatotoxicity [12] of 0. In the series with Hepatotoxicity [13], the “HepSE_liver function tests abnormal” value is 0. Further, the “HepSE_Combined Scores” value in the series with Hepatotoxicity [14] worked out at 2.
Molecule `CC(C)(C)NC[C@H](O)COc1ccccc1C1CCCC1` [PENBUTOLOL] came in with a HepSE_bilirubinemia in the series with Hepatotoxicity [1] of 0. The molecule also came in with a HepSE_cholecystitis with Hepatotoxicity [2] of 0. The molecule further gave a HepSE_cholelithiasis in the series with Hepatotoxicity [3] of 0. This molecule gave a HepSE_cirrhosis with Hepatotoxicity [4] of 0. In addition, the “HepSE_elevated liver function tests” value in the series on Hepatotoxicity [5] is 0. This molecule also registered a HepSE_hepatic failure in the series with Hepatotoxicity [6] of 0. In the series on Hepatotoxicity [7], this molecule displayed a HepSE_hepatic necrosis of 0. In the series with Hepatotoxicity [8], this molecule yielded a HepSE_hepatitis of 0. The molecule further yielded a HepSE_hepatomegaly in the series with Hepatotoxicity [9] of 0. In the series with Hepatotoxicity [10], this molecule displayed a HepSE_jaundice of 0. Also, the HepSE_liver disease in the series with Hepatotoxicity [11] stood at 0. The HepSE_liver fatty in the series on Hepatotoxicity [12] stood at 0. Besides, the “HepSE_liver function tests abnormal” value in the series with Hepatotoxicity [13] amounted to 0. Besides, in the series on Hepatotoxicity [14], the “HepSE_Combined Scores” value amounted to 0.
In the series on Hepatotoxicity [1], `Oc1ccc2c(c1)[C@@]13CCCC[C@@]1(O)[C@@H](C2)N(CC1CCC1)CC3` [BUTORPHANOL] showed a HepSE_bilirubinemia of 0. The HepSE_cholecystitis with Hepatotoxicity [2] amounted to 0. The HepSE_cholelithiasis in the series with Hepatotoxicity [3] amounted to 0. The HepSE_cirrhosis with Hepatotoxicity [4] was 0. Further, the “HepSE_elevated liver function tests” value with Hepatotoxicity [5] was found to be 0. For the same molecule, in the series on Hepatotoxicity [6], the HepSE_hepatic failure worked out at 0. Moreover, the HepSE_hepatic necrosis in the series on Hepatotoxicity [7] came to 0. Further, the HepSE_hepatitis in the series on Hepatotoxicity [8] is 0. Besides, in the series on Hepatotoxicity [9], the HepSE_hepatomegaly is listed as 0. This molecule showed a HepSE_jaundice in the series on Hepatotoxicity [10] of 0. The molecule also gave a HepSE_liver disease in the series with Hepatotoxicity [11] of 0. This molecule also gave a HepSE_liver fatty with Hepatotoxicity [12] of 0. Further, the “HepSE_liver function tests abnormal” value in the series on Hepatotoxicity [13] is on record as 0. Also, in the series on Hepatotoxicity [14], the “HepSE_Combined Scores” value came out at 0.
In the case of `COCCCOc1ccnc(C[S+]([O-])c2nc3ccccc3[nH]2)c1C` (stereo not given) [RABEPRAZOLE], the HepSE_bilirubinemia in the series with Hepatotoxicity [1] came to 0. This molecule also registered a HepSE_cholecystitis with Hepatotoxicity [2] of 1. This molecule came in with a HepSE_cholelithiasis with Hepatotoxicity [3] of 1. In addition, the HepSE_cirrhosis with Hepatotoxicity [4] is reported as 1. In addition, in the series on Hepatotoxicity [5], the “HepSE_elevated liver function tests” value was 0. In the series on Hepatotoxicity [6], this molecule displayed a HepSE_hepatic failure of 0. This molecule also displayed a HepSE_hepatic necrosis in the series with Hepatotoxicity [7] of 0. In addition, the HepSE_hepatitis with Hepatotoxicity [8] is on record as 1. The HepSE_hepatomegaly in the series on Hepatotoxicity [9] was determined as 0. Moreover, the HepSE_jaundice in the series with Hepatotoxicity [10] worked out at 1. For the same molecule, the HepSE_liver disease in the series on Hepatotoxicity [11] is 0. The HepSE_liver fatty in the series on Hepatotoxicity [12] was 1. Moreover, the “HepSE_liver function tests abnormal” value in the series on Hepatotoxicity [13] is 1. Besides, the “HepSE_Combined Scores” value in the series on Hepatotoxicity [14] came out at 7.
For `CC(C)Nc1cccnc1N1CCN(C(=O)c2cc3cc(NS(C)(=O)=O)ccc3[nH]2)CC1` [DELAVIRDINE], the HepSE_bilirubinemia in the series on Hepatotoxicity [1] was determined as 1. For the same molecule, the HepSE_cholecystitis in the series on Hepatotoxicity [2] is 0. The same molecule returned a HepSE_cholelithiasis in the series on Hepatotoxicity [3] of 0. Moreover, in the series with Hepatotoxicity [4], the HepSE_cirrhosis was determined as 0. The “HepSE_elevated liver function tests” value in the series on Hepatotoxicity [5] amounted to 0. The HepSE_hepatic failure in the series on Hepatotoxicity [6] is 1. This molecule also registered a HepSE_hepatic necrosis with Hepatotoxicity [7] of 0. The same molecule showed a HepSE_hepatitis with Hepatotoxicity [8] of 1. This molecule also had a HepSE_hepatomegaly in the series with Hepatotoxicity [9] of 1. The molecule further yielded a HepSE_jaundice with Hepatotoxicity [10] of 1. In the series with Hepatotoxicity [11], this molecule displayed a HepSE_liver disease of 0. The molecule further gave a HepSE_liver fatty with Hepatotoxicity [12] of 0. Besides, the “HepSE_liver function tests abnormal” value with Hepatotoxicity [13] is 0. In addition, in the series with Hepatotoxicity [14], the “HepSE_Combined Scores” value was found to be 5.
